# Data taken from paper PMC11054303, “Design and Synthesis of Novel N-Benzylidene Derivatives of 3-Amino-4-imino-3,5-dihydro-4H-chromeno[2,3-d]pyrimidine under Microwave, In Silico ADME Predictions, In Vitro Antitumoral Activities and In Vivo Toxicity” (Pharmaceuticals, 2024).
# pIC50: −log10 of the molar value. Entries after “also recorded” stand apart in the source; their conditions may differ.
# Assays:
# Assay type in all cases: cell-based, human
# [1] = system: Caco2; assay: Antiproliferative assay, Caco2; conditions: Homo sapiens, Caco-2; 48 h incubation; average of three assays, standard error ± 0.5 μM
# Procedure: (§1) The potential antiproliferative activity of these novel 3-(N-phenylmethyliden)amino-4-imino-3,5-dihydro-4H-chromeno[2,3-d]pyrimidine 10(a-i) and 10-(N-phenylmethyliden)amino-11-imino-11H-naphto[1′,2′:5,6]pyrano[2,3-d]pyrimidine 10(j-l) was evaluated in a panel of eight tumoral cell lines and in diploid skin fibroblasts used as normal cell lines for control. For these antitumor assays, chosen cell lines represent diverse types of human cancer, which are, respectively, human hepatocellular carcinoma (Huh7 D12), human colon adenocarcinoma (Caco2), human breast adenocarcinoma (MDA-MB231), MDA-MB468 for human breast carcinoma which correspond to the Triple Negative Breast Cancer (TNBC), human colon carcinoma (HCT116), PC3 as cell line initiated from bone metastasis of grade IV prostatic adenocarcinoma from a person, MCF7 as breast cancer line isolated from a person and PANC1, as human pancreatic cancer cell line. The potential antiproliferative activity was preliminarily evaluated in vitro at a 25 μM single dose.
# (§2) The IC50 was calculated from the full dose-response curve and used as a parameter for the antiproliferative activity of the new compounds.
# (§3) Skin diploid fibroblastic cells were provided by BIOPREDIC International Company (Rennes, France). Huh-7D12 (Ref ECACC: 01042712), Caco2 (Ref ECACC: 86010202), MDA-MB-231 (Ref ECACC: 92020424), MDA-MB-468, HCT-116 (Ref ECACC: 91091005), PC3 (Ref ECACC: 90112714), and MCF7 cell lines were obtained from the ECACC collection. PANC1 cell lines, a generous gift of LBAI Inserm 1227 (Brest, France). Cells were grown according to ECACC recommendations in DMEM for Huh-D12, MDA-MB-231, MDA-MB-468 and fibroblast, in EMEM for Caco2, in McCoy’s for HCT-116 and RPMI for PC3 at 37 °C and 5% CO2. All culture media with 10% of FBS, 1% of penicillin-streptomycin and 2 mM glutamine.
# (§4) Chemicals were solubilized in DMSO at a concentration of 10 mM (stock solution) and diluted in a culture medium to the desired final concentrations. […] The toxicity test of the chemicals on these cells was as follows: 2 × 10^3 cells for HCT-116 cells or 4 × 10^3 for the other cells were seeded in 96-multi-well plates in triplicate and left for 24 h for attachment, spreading and growing. Then, cells were exposed for 48 h to increasing concentrations of chemicals, ranging from 0.1 μM to 25 μM, in a final volume of 120 μL of culture medium. After 48 h of treatment, cells were washed in PBS and fixed in a cooled 90% ethanol/5% acetic acid solution for 20 min. The nuclei were stained with Hoechst 3342 (B2261 Merck Sigma-Aldrich) and counted. Image acquisition and analysis were performed using automated imaging analysis with a Cellomics Arrayscan VTI/HCS Reader (Thermo/Scientific, Waltham, MA, USA). The survival percentages were calculated as the percentage of cell number after chemical treatment over cell number after DMSO treatment. The IC50 was graphically determined.
# [2] = Antiproliferative assay, Caco2; conditions: human, Caco-2; SI = IC50 fibroblasts/IC50 on Caco2; read-out: Selectivity Index (SI) Caco2
# Procedure: as §1, §2, §3, §4
# [3] = system: Store-Operated Ca^+2 Entry (SOCE); assay: Store-operated calcium entry (SOCE) assay in HEK293 cells; conditions: 1.25 to 50 μM added 5 min before recording, 2 μM thapsigargin, then 1.8 mM Ca2+
# Procedure: Thapsigargin (TG), an inhibitor of endoplasmic reticulum Ca^+2-ATPase, is used to deplete intracellular calcium stores in a Ca^+2-free solution and therefore activate SOCE. […] In the context of a preliminary exploration of the functional effects of our molecules of interest and in the absence of a significant inhibition at a low concentration of compound 10h on the reference cell line we used (HEK293) no further exploration of the modulatory effect of this compound on cancer cell lines was initiated.
# The HEK293 cell line was maintained in DMEM High Glucose with Sodium Pyruvate ([…]) and antibiotics (1% of penicillin/streptomycin) in a humidified incubator at 37 °C, supplemented with 5% of CO2.
# For Ca^2+ measurement experiments, HEK293 cells were seeded overnight into 96 wells of a black clear bottom plate (Corning Ref: 3603) at […] in 100 µL culture medium. The resting medium was aspirated and cells were loaded with Fura-2 acetoxymethyl ester (Fura-2 QBT™) fluorochrome. […]
# Intracellular calcium levels were evaluated by recording changes in the fluorescence of the dual-wavelength fluorescent calcium-sensitive dye Fura-2AM using the plate reader FlexStation 3™ (Molecular Devices, Sunnyvale, CA, USA). Dual excitation wavelength capability permits ratiometric measurements of Fura-2AM peak fluorescence emission at 510 nm after excitations at 340 and 380. […]
smiles,measurement,setting,value
"COc1cccc2c1Oc1ncn(/N=C/c3ccccc3O)c(=N)c1C2 [10h, (3E) 3-N-(2-Hydroxyphenylmethylidene)amino-4-imino-9-methoxy-3,5-dihydro-4H-chromeno[2,3-d]pyrimidine]",pIC50,[1],6.52
same,selectivity ratio at 48 h,[2],> 83.3
same,inhibition of SOCE,[3],dose-dependent inhibition; also recorded: partially inhibits SOCE in HEK293 cells in a dose-dependent manner; also recorded: dose-dependent effect but with a minor inhibitory effect on SOCE at low concentrations
